Assay results from patent US20180037923A1, “SELECTIVE DETECTION OF LACTIC ACID AND/OR ACETIC ACID BACTERIA OR OF FUNGI” (priority 2015, published 2018).
“And” between values parts separate entries of the source, which are not always exact repeats. Equal entries are not always repeated.

Key:
[1] = system: Sacch. Cerevisae DSM 70449; assay: Agar plate count after contact with antifungal; assay type: cell-based, Saccharomyces cerevisae; conditions: 400 mg/L; count at contact time 0 h 8.10^4 CFU/mL
Source text: (§1) The word “bactericide” refers to a treatment having the effect of reducing a bacterial population by at least three decimal logarithms of colony forming units/ml on an agar plate count of a sample after treatment.
(§2) The toxicity results on yeasts and on bacteria are presented in the table below displaying the duration of exposure of the fungal flora to molecule A1 and the associated fluorescence measurement: yeasts lysis after exposure to the antifungal was confirmed by microscopic examination and methylene blue staining.
(§3) The words “contact time” refer to below, the time of exposure of the microorganisms to the fungicidal product, here molecule A1.
(§4) Below: “No CFU” is the abbreviation for “No Colony forming unit on agar plate count”.
(§5) The toxicity results on yeasts and on bacteria are presented in the table below displaying the duration of exposure of the fungal flora to the molecule A2 and are obtained by enumeration on MRS agar media.

[2] = system: Sacch. Cerevisae Saflager S23; assay: Agar plate count after contact with antifungal; assay type: cell-based, Saccharomyces cerevisae; conditions: 400 mg/L; count at contact time 0 h 9.10^4 CFU/mL
Source text: as §1, §2, §3, §4, §5

[3] = system: Acetobacter aceti DSM 3508; assay: Agar plate count after contact with antifungal; assay type: cell-based; conditions: count at contact time 0 h 2.9.10^7 CFU/mL
Source text: as §1, §2, §3, §4, §5

[4] = system: Brettanomyces bruxellensis Wyeast labs; assay: Agar plate count after contact with antifungal; assay type: cell-based
Source text: as §1, §2, §3, §4, §5

[5] = system: Dekkera anomala IFBM; assay: Agar plate count after contact with antifungal; assay type: cell-based; conditions: 400 mg/L; count at contact time 0 h 1.10^5 CFU/mL
Source text: as §1, §2, §3, §4, §5

[6] = system: Lactobacillus brevis IFBM; assay: Agar plate count after contact with antifungal; assay type: cell-based; conditions: count at contact time 0 h 7.10^5 CFU/mL
Source text: as §1, §2, §3, §4, §5

[7] = system: Lactobacillus lindneri DSM 20690; assay: Agar plate count after contact with antifungal; assay type: cell-based
Source text: as §1, §2, §3, §4, §5

[8] = system: Lactobacillus parabuchneri DSM 5708; assay: Agar plate count after contact with antifungal; assay type: cell-based; conditions: count at contact time 0 h 1.4.10^6 CFU/mL
Source text: as §1, §2, §3, §4, §5

[9] = system: Lactobacillus paracasei IFBM; assay: Agar plate count after contact with antifungal; assay type: cell-based; conditions: count at contact time 0 h 1.4.10^7 CFU/mL
Source text: as §1, §2, §3, §4, §5

[10] = system: Oenococcus oeni DSM 20252; assay: Agar plate count after contact with antifungal; assay type: cell-based
Source text: as §1, §2, §3, §4, §5

[11] = system: Pedicoccus damnosus IFBM; assay: Agar plate count after contact with antifungal; assay type: cell-based
Source text: as §1, §2, §3, §4, §5

[12] = system: Zyggosaccharomyces bailii; assay: Agar plate count after contact with antifungal; assay type: cell-based; conditions: 400 mg/L; count at contact time 0 h 3.10^5 CFU/mL
Source text: as §1, §2, §3, §4, §5

[13] = system: G. oxydans DSM 7145; assay: Agar plate count after contact with antifungal; assay type: cell-based, Gluconobacter oxydans
Source text: as §1, §2, §3, §4, §5

[14] = system: lactic acid bacteria and acetic acid bacteria; assay: Bactericidal action on the bacterial flora (conclusion from agar plate counts); assay type: cell-based; conditions: bactericide = reduction by at least three decimal logarithms of CFU/ml
Source text: as §1, §2, §5

[15] = system: Brettanomyces bruxellensis; assay: Atpmetry check, initial protocol (Filtravette), with plate count; assay type: cell-based; conditions: 4 h contact time; without antifungal 2.8.10^6 CFU/500 μL
Description: (§6) For the molecule A1, an Atpmetry check of the fungal flora destruction and of the antifungal treatment harmlesness on the lactic acid or acetic acid bacterial flora has been done for a contact time of 4 hours or 8 hours and on different strains.
(§7) Strains tested: Oenococcus oeni DSM, Gluconobacter oxydans, B. bruxellensis, S. cerevisae, prepared in MRS broth.
(§8) Materials: Lum-1 ATP meter (model analogous to Profile-1 bioluminometer from New Horizons Diagnostics) was tested with Biothema Ab bioluminescence reagents, namely reagents “ATP Eliminating Buffer”, “Extractant B/S”, “ATP Reagent HS” and 0.45 μm porosity Filtravette™ cuvette-filters from New Horizons Diagnostics.
(§9) Addition of 500 μL of the suspension without fungicidal treatment or with fungicidal treatment inside a 10 mL plastic syringe containing at its end a cell concentrator incorporating a Filtravette™.
(§10) Filtration through the Filtravette™
(§11) Filtravette™ deposit on a Filtravette™ holder with a blotter pad below
(§12) Addition of 50 μL of “ATP Eliminating Buffer” inside the Filtravette
(§13) 10 minutes incubation at room temperature
(§14) Flushing of the “ATP Eliminating Buffer” Reagent through the blotter pad by positive pressure
(§15) Homogenization and 1 minute incubation.
(§16) Addition of 240 μL of “ATP Reagent HS”. Homogenization.
(§17) Insertion of the Filtravette into the Lum-1 drawer and closure of the drawer.

[16] = system: Gluconobacter oxydans; assay: as above; assay type: cell-based
Description: as §6, §7, §8, §9, §10, §11, §12, §13, §14, §15, §16, §17

[17] = system: Oenococcus oeni DSM; assay: as above; assay type: cell-based; conditions: 4 h contact time; without antifungal 0.9.10^7 CFU/500 μL
Description: as §6, §7, §8, §9, §10, §11, §12, §13, §14, §15, §16, §17

[18] = system: Saccharomyces cerevisae DSM; assay: as above; assay type: cell-based; conditions: Antifungal 4 h contact time
Description: as §6, §7, §8, §9, §10, §11, §12, §13, §14, §15, §16, §17

[19] = system: Brettanomyces bruxellensis; assay: Atp bioluminescence, simplified protocol, with plate count; assay type: cell-based; conditions: Treated 8 h antifungal contact time
Description: Use of […] transparent Greiner Bio One sterile flat bottom disposable cuvettes with Biothema AB bioluminescence reagents • 1. […] Addition of 150 μL of “ATP Reagent HS”, Homogenization. • 4.

[20] = system: yeasts; assay: Microscopic examination and methylene blue staining of yeasts after antifungal; assay type: cell-based
Source text: as §2

[21] = 200 mg/L, count at contact time 0 h 6.10^6 CFU/mL

Structure (SMILES): C[C@@H]1[C@H](O)[C@@H](C)/C=C/C=C/C=C/C=C/C=C/C=C/C=C/[C@H](O[C@@H]2O[C@H](C)[C@@H](O)[C@H](N)[C@@H]2O)C[C@@H]2O[C@](O)(C[C@@H](O)C[C@@H](O)[C@H](O)CC[C@@H](O)C[C@@H](O)CC(=O)O[C@H]1C)C[C@H](O)[C@H]2C(=O)O [Molecule A1, Amphotericin B]
- Agar plate count contact time 4 h [1]: No CFU
- Agar plate count contact time 4 h [2]: No CFU
- Agar plate count contact time 4 h ([3]; 200 mg/L): 8.10^8 CFU/mL
- Agar plate count contact time 4 h ([3]; 400 mg/L): 3.10^7 CFU/mL
- Agar plate count contact time 4 h [4, 21]: No CFU
- Agar plate count contact time 4 h ([4]; 400 mg/L, count at contact time 0 h 3.10^5 CFU/mL): No CFU
- Agar plate count contact time 4 h [5]: No CFU
- Agar plate count contact time 4 h ([6]; 200 mg/L): 2.9.10^5 CFU/mL
- Agar plate count contact time 4 h ([6]; 400 mg/L): 3.10^5 CFU/mL
- Agar plate count contact time 4 h [7, 21]: 2.10^6 CFU/mL
- Agar plate count contact time 4 h ([7]; 400 mg/L, count at contact time 0 h 6.10^5 CFU/mL): 7.10^4 CFU/mL
- Agar plate count contact time 4 h ([8]; 200 mg/L): 1.10^6 CFU/mL
- Agar plate count contact time 4 h ([8]; 400 mg/L): 3.10^5 CFU/mL
- Agar plate count contact time 4 h ([9]; 200 mg/L): 2.4.10^7 CFU/mL
- Agar plate count contact time 4 h ([9]; 400 mg/L): 1.10^7 CFU/mL
- Agar plate count contact time 4 h ([10]; 200 mg/L, count at contact time 0 h 4.10^9 CFU/mL): 6.10^9 CFU/mL
- Agar plate count contact time 4 h ([10]; 400 mg/L, count at contact time 0 h 4.10^7 CFU/mL): 5.10^7 CFU/mL
- Agar plate count contact time 4 h ([11]; 200 mg/L, count at contact time 0 h 7.2.10^5 CFU/mL): 8.10^5 CFU/mL
- Agar plate count contact time 4 h ([11]; 400 mg/L, count at contact time 0 h 1.1.10^5 CFU/mL): 2.10^7 CFU/mL
- Agar plate count contact time 4 h [12]: No CFU
- Agar plate count contact time 4 h ([13]; 200 mg/L, count at contact time 0 h 8.10^8 CFU/mL): 1.10^9 CFU/mL
- Agar plate count contact time 4 h ([13]; 400 mg/L, count at contact time 0 h 8.10^7 CFU/mL): 9.10^7 CFU/mL
- Bactericidal action on lactic acid and acetic acid flora ([14]; doses of 200 mg/liter): non-bactericidal for lactic acid bacteria and acetic acid bacteria
- Bactericidal action on lactic acid and acetic acid flora ([14]; doses of 400 mg/liter): non-bactericidal
- Plate count with antifungal [15]: 0 CFU/500 μL
- Atp bioluminescence with antifungal treatment ([16]; MRS broth, 500 μL analysed, 1.10^7 CFU/500 μL before treatment, 115966 RLU): 77057 RLU
- Plate count with antifungal ([16]; before treatment 1.10^7 CFU/500 μL): 4.1.10^6 CFU/500 μL
- Plate count with antifungal [17]: 4.10^6 CFU/500 μL
- Agar plate count with antifungal ([18]; start 5.10^2 CFU/500 μL): time no count on agar
- Atp bioluminescence with antifungal treatment ([18]; start 5.10^2 CFU/500 μL, untreated 206949 and 149508 RLU): 642 RLU
- Agar plate count with antifungal ([18]; start 5.10^3 CFU/500 μL): time no count on agar
- Atp bioluminescence with antifungal treatment ([18]; start 5.10^3 CFU/500 μL, untreated >1000000 RLU): 4665 RLU
- total bioluminescence with lysis agent ([19]; start 2.7.10^2 CFU/100 μL, untreated with lysis agent 26990 and 31661, background 862 and 718 RLU): 933 RLU and 553 RLU
- total bioluminescence with lysis agent ([19]; start 2.7.10^3 CFU/100 μL, untreated with lysis agent 242958 and 265513, background 5346 and 5390 RLU): 4441 RLU and 4433 RLU
- Concentration after treatment ([19]; untreated 2.7.10^2 CFU/100 μL): 0 CFU/100 μL
- Concentration after treatment ([19]; untreated 2.7.10^3 CFU/100 μL): 0 CFU/100 μL
- yeasts lysis after exposure to the antifungal [20]: confirmed
